# Key:
# Test in all cases: in vitro antibacterial evaluation, MIC by broth dilution
# Type in all cases: cell-based
# [1] = test system: Enterococcus sp.; details: broth dilution, 18 hours at 35° C.
# In short: (§1)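 Step 1: dilute antibiotic across 64-0.06 μg/mL in Muller-Hinton II […]. Step 2: inoculate at 5×10^5 CFU/mL.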
# [2] = test system: Escherichia coli; details: 18 hours at 35° C.
# In short: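 Broth dilution per NCCLS standard M7-A2 in Muller-Hinton II […], with an inoculum of 5×10^5 CFU/mL and antibiotic spanning 64-0.06 μg/mL. The MIC is the lowest concentration that inhibits growth of the organism.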
# [3] = test system: Streptococcus sp.; details: broth dilution, 18 hours at 35° C.
# In short: as §1
# [4] = test system: Staphylococcus sp.; details: broth dilution, 18 hours at 35° C.
# In short: as §1
compound,measurement,setting,value
"CCC(C)C(=O)OC1C(CO)OC(OC2C(CO)OC(Oc3ccc(CC4NC(=O)C(C(C)c5ccccc5)NC(=O)CNC(=O)C(CO)NC(=O)C(C(O)C5CNC(=N)N5C5OC(CO)C(O)C(O)C5O)NC(=O)C(C(O)C5CNC(=N)N5)NC4=O)cc3)C(O)C2O)C(O)C1O (stereo not drawn) [Example 278c, Cyclo[glycyl-β-methylphenylalanyl-O-[4-O-[4-O-(2-methylbutanoyl)hexopyranosyl]hexopyranosyl]tyrosyl-3-(2-iminoimidazolidin-4-yl)seryl-3-(3-hexopyranosyl-2-iminoimidazolidin-4-yl)serylseryl]]",MIC Enterococcus avium (GC 4558),[1]; Enterococcus avium (GC 4558),32 mg/L
same,MIC Enterococcus faecalis (ATCC 29212),[1]; Enterococcus faecalis (ATCC 29212),32 mg/L
same,MIC Enterococcus faecalis (GC 4553),[1]; Enterococcus faecalis (GC 4553),32 mg/L
same,MIC Enterococcus faecalis (GC 4554),[1]; Enterococcus faecalis (GC 4554),32 mg/L
same,MIC Enterococcus faecalis (GC 6189),[1]; Enterococcus faecalis (GC 6189),32 mg/L
same,MIC Enterococcus faecium (GC 2243),[1]; Enterococcus faecium (GC 2243),32 mg/L
same,MIC Enterococcus faecium (GC 4556),[1]; Enterococcus faecium (GC 4556),32 mg/L
same,MIC Enterococcus faecium (GC 4557),[1]; Enterococcus faecium (GC 4557),8 mg/L
same,MIC Enterococcus faecalis (ATCC 29212),[1]; strain ATCC 29212,32 mg/L
same,MIC Enterococcus faecalis (GC 2242),[1]; strain GC 2242,16 mg/L
same,MIC Enterococcus faecium (GC 2243),[1]; strain GC 2243,32 mg/L
same,MIC Enterococcus faecalis (GC 2691),[1]; strain GC 2691,32 mg/L
same,MIC Enterococcus faecalis (GC 3059),[1]; strain GC 3059,32 mg/L
same,MIC Enterococcus faecalis (GC 4552),[1]; strain GC 4552,32 mg/L
same,MIC Enterococcus faecalis (GC 4553),[1]; strain GC 4553,32 mg/L
same,MIC Enterococcus faecalis (GC 4554),[1]; strain GC 4554,32 mg/L
same,MIC Enterococcus faecium (GC 4556),[1]; strain GC 4556,32 mg/L
same,MIC Enterococcus faecium (GC 4557),[1]; strain GC 4557,8 mg/L
same,MIC Enterococcus avium (GC 4558),[1]; strain GC 4558,32 mg/L
same,MIC Enterococcus faecalis (GC 6189),[1]; strain GC 6189,32 mg/L
same,MIC Escherichia coli (ATCC 25922),[2]; Escherichia coli (ATCC 25922),>64 mg/L
same,MIC Escherichia coli (GC 4559),[2]; Escherichia coli (GC 4559),>64 mg/L
same,MIC Escherichia coli (GC 4560),[2]; Escherichia coli (GC 4560),2 mg/L
same,MIC Streptococcus pneumoniae (ATCC 6301),[3]; strain ATCC 6301,1 mg/L
same,MIC Streptococcus pneumoniae (GC 1894),[3]; strain GC 1894,0.5 mg/L
same,MIC Streptococcus pyogenes (GC 4563),[3]; strain GC 4563,1 mg/L
same,MIC Streptococcus agalactiae (GC 4564),[3]; strain GC 4564,2 mg/L
same,MIC Streptococcus pneumoniae (GC 4565),[3]; strain GC 4565,1 mg/L
same,MIC Coagulase Negative Staphylococcus (GC 4547),[4],4 mg/L
same,MIC Coagulase Negative Staphylococcus (GC 4548),[4],2 mg/L
same,MIC Coagulase Negative Staphylococcus (GC 4549),[4],2 mg/L
same,MIC Coagulase Negative Staphylococcus (GC 4551),[4],8 mg/L
same,MIC Coagulase Negative Staphylococcus (GC 6257),[4],2 mg/L
same,MIC Staphylococcus aureus (ATCC 29213),[4],4 mg/L
same,MIC Staphylococcus aureus (GC 1131),[4],8 mg/L
same,MIC Staphylococcus aureus (GC 3051),[4],2 mg/L
same,MIC Staphylococcus aureus (GC 3053),[4],8 mg/L
same,MIC Staphylococcus aureus (GC 4541),[4],4 mg/L
same,MIC Staphylococcus aureus (GC 4542),[4],4 mg/L
same,MIC Staphylococcus aureus (GC 4544),[4],4 mg/L
same,MIC Staphylococcus aureus (GC 4545),[4],4 mg/L
same,MIC Staphylococcus aureus-SMITH (GC 4543),[4],4 mg/L
same,MIC Staphylococcus haemolyticus (GC 4546),[4],2 mg/L
same,MIC Staphylococcus aureus (ATCC 29213),[4]; strain ATCC 29213,4 mg/L
same,MIC Staphylococcus aureus (GC 1131),[4]; strain GC 1131,8 mg/L
same,MIC Staphylococcus aureus (GC 3051),[4]; strain GC 3051,2 mg/L
same,MIC Staphylococcus aureus (GC 3053),[4]; strain GC 3053,8 mg/L
same,MIC Staphylococcus aureus (GC 4541),[4]; strain GC 4541,4 mg/L
same,MIC Staphylococcus aureus (GC 4542),[4]; strain GC 4542,4 mg/L
same,MIC Staphylococcus aureus (GC 4544),[4]; strain GC 4544,4 mg/L
same,MIC Staphylococcus aureus (GC 4545),[4]; strain GC 4545,4 mg/L
same,MIC Staphylococcus haemolyticus (GC 4546),[4]; strain GC 4546,2 mg/L
same,MIC Coagulase Negative Staphylococcus (GC 4547),[4]; strain GC 4547,4 mg/L
same,MIC Coagulase Negative Staphylococcus (GC 4548),[4]; strain GC 4548,2 mg/L
same,MIC Coagulase Negative Staphylococcus (GC 4549),[4]; strain GC 4549,2 mg/L
same,MIC Coagulase Negative Staphylococcus (GC 4551),[4]; strain GC 4551,8 mg/L
same,MIC Coagulase Negative Staphylococcus (GC 6257),[4]; strain GC 6257,2 mg/L
same,MIC Staphylococcus aureus-SMITH (GC 4543),[4]; strain SMITH GC 4543,4 mg/L
